What was measured:
[1] = molecular target: Phosphatidylinositol 4,5-bisphosphate 3-kinase catalytic subunit alpha isoform (Homo sapiens, UniProt P42336); test: Inhibition of human PI3Kalpha expressed in Sf9 cells by fluorescent polarization assay
[2] = molecular target: Phosphatidylinositol 4,5-bisphosphate 3-kinase catalytic subunit gamma isoform (Homo sapiens, UniProt P48736); test: Inhibition of human PI3Kgamma expressed in Sf9 cells by fluorescent polarization assay
[3] = organism: Homo sapiens; test: Selectivity for human PI3Kalpha over human PI3Kgamma

Phosphatidylinositol 4,5-bisphosphate 3-kinase catalytic subunit gamma isoform, sequence (P48736 whole entry, canonical isoform): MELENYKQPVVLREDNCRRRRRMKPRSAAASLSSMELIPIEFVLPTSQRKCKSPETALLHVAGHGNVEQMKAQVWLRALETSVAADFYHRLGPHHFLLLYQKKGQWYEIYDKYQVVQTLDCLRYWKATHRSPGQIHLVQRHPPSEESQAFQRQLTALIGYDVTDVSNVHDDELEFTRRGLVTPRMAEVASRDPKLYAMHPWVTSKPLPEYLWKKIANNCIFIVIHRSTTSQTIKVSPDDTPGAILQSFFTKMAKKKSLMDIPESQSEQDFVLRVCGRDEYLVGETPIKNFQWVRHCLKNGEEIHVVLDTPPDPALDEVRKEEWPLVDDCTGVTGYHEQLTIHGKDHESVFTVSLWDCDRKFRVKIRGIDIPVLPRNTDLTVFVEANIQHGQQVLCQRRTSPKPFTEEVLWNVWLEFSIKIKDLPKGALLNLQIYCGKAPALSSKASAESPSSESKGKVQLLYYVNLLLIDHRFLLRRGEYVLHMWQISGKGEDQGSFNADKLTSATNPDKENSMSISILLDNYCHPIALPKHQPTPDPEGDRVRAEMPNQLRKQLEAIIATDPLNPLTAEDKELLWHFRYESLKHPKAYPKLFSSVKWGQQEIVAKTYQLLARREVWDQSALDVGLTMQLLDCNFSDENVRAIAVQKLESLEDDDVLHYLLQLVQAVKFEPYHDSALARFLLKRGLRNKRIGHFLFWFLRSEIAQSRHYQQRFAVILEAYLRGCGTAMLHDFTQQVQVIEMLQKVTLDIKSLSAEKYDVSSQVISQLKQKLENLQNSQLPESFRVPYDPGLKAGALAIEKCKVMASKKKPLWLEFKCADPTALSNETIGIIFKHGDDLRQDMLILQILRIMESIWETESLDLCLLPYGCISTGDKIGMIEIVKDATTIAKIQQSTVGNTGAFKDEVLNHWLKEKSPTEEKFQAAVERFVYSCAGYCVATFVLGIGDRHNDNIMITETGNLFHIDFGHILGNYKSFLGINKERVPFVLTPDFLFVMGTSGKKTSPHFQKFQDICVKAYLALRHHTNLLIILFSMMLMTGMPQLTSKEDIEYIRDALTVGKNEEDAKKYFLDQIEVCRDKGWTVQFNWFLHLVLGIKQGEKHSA
Phosphatidylinositol 4,5-bisphosphate 3-kinase catalytic subunit alpha isoform, sequence (P42336 whole entry, canonical isoform): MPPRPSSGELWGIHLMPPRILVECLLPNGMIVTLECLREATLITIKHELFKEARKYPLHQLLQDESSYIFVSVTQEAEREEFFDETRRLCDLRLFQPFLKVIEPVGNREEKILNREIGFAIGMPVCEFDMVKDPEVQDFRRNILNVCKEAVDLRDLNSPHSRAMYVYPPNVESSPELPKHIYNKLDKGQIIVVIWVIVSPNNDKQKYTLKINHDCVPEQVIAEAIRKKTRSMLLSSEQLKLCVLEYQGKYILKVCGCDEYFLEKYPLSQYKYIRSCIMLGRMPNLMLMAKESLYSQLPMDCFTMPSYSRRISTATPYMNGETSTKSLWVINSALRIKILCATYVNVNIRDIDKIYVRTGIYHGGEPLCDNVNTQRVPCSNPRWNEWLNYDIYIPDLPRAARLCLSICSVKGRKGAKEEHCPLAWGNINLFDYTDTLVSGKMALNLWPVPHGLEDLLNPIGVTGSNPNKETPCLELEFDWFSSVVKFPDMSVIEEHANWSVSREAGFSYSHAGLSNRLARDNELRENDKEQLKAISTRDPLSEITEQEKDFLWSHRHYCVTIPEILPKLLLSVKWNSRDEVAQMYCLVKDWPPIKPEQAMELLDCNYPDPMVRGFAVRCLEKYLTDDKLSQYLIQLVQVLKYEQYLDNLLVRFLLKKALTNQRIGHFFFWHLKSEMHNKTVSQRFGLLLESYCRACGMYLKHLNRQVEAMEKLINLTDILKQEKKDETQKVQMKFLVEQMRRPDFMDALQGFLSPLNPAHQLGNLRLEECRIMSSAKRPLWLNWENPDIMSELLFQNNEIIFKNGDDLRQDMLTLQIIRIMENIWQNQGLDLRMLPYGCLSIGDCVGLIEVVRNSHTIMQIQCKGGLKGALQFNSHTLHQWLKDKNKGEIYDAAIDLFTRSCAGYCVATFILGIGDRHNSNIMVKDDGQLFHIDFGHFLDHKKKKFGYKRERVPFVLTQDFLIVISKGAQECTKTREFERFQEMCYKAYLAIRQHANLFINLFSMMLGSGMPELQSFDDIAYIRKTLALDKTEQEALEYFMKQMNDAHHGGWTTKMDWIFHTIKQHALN

Row | Compound | IC50 [1] | IC50 [2] | Ratio IC50 [3]
1 | C[C@H]1CC[C@H]2C(C)(C)CCC[C@]2(C)c2c1oc1cc(O)ccc21 | 2.2 µM | 2.2 µM | –
2 | C[C@@H]1CC[C@H]2C(C)(C)CCC[C@]2(C)c2c1oc1c(C=O)c(O)c(O)cc21 | 0.1 µM | 1 µM | –
3 | C[C@@H]1CC[C@H]2C(C)(C)CCC[C@]2(C)C2=C3C=C(O)C(=O)C(Br)=C3OC21O (stereo partly drawn) | 3.3 µM | > 10 µM | –
4 | COc1ccc2c3c(oc2c1Br)[C@H](C)CC[C@H]1C(C)(C)CCC[C@]31C | > 10 µM | > 10 µM | –
5 | C[C@@H]1CC[C@H]2C(C)(C)CCC[C@]2(C)c2c1oc1c(Br)c(O)ccc21 | 10.2 µM | 5.7 µM | –
6 | C[C@@H]1CC[C@H]2C(C)(C)CCC[C@]2(C)c2c1oc1ccc(O)cc21 | 7.2 µM | 1.9 µM | –
7 | C[C@@H]1CC[C@H]2C(C)(C)CCC[C@]2(C)c2c1oc1cc(O)ccc21 | > 10 µM | > 10 µM | –
8 | C[C@@H]1CCCC(C)(C)C12CC[C@H](C)c1oc3c(Br)c(O)c(O)cc3c12 (mixture of isomers) | 0.7 µM | 5.3 µM | 7
9 | CC1(C)CCC[C@]2(C)C3=C4C=C(O)C(=O)C=C4OC3(O)CC[C@@H]12 (mixture of isomers) | 1.65 µM | 9.57 µM | –

Results, then the molecule that gave them:

Row | IC50 [1] | IC50 [2] | Ratio IC50 [3] | Compound
10 | 5.12 µM | 2.64 µM | – | COc1cc2c3c(oc2c(C=O)c1OC)CC[C@H]1C(C)(C)CCC[C@]31C (racemic)
11 | 0.066 µM | 1.8 µM | 27 | CC1(C)CCC[C@]2(C)c3c(oc4c(C=O)c(O)c(O)cc34)CC[C@@H]12 (racemic)
12 | 1 µM | 5.15 µM | – | COc1cc2c3c(oc2c(C=O)c1O)CC[C@H]1C(C)(C)CCC[C@]31C (racemic)
13 | 0.7 µM | 1.4 µM | – | CC1(C)CCC[C@]2(C)c3c(oc4c(C(N)=O)c(O)c(O)cc34)CC[C@@H]12 (racemic)
